Data: ChEMBL document CHEMBL4834412, “2,4,5-Trisubstituted Pyrimidines as Potent HIV-1 NNRTIs: Rational Design, Synthesis, Activity Evaluation, and Crystallographic Studies” (J Med Chem, 2021)

How the values were obtained:
Format in all cases: functional, organism-based
[1] = tested on: Human immunodeficiency virus 1; assay: Antiviral activity against HIV-1 harboring RT Y181C mutant infected in human MT4 cells assessed as protection against virus-induced cytopathogenicity after 5 days by MTT assay; conditions: Human immunodeficiency virus 1, MT4, 120 h
[2] = tested on: Human immunodeficiency virus 1; assay: Antiviral activity against HIV-1 harboring RT Y188L mutant infected in human MT4 cells assessed as protection against virus-induced cytopathogenicity after 5 days by MTT assay; conditions: Human immunodeficiency virus 1, MT4, 120 h
[3] = tested on: Human immunodeficiency virus 1; assay: Antiviral activity against HIV-1 harboring RT E138K mutant infected in human MT4 cells assessed as protection against virus-induced cytopathogenicity after 5 days by MTT assay; conditions: Human immunodeficiency virus 1, MT4, 120 h
[4] = tested on: Human immunodeficiency virus 1; assay: Antiviral activity against HIV-1 harboring RT F227L/V106A mutant infected in human MT4 cells assessed as protection against virus-induced cytopathogenicity after 5 days by MTT assay; conditions: Human immunodeficiency virus 1, MT4, 120 h
[5] = tested on: Human immunodeficiency virus 1; assay: Antiviral activity against HIV-1 strain IIIB infected in human MT4 cells assessed as protection against virus-induced cytopathicity after 5 days by MTT assay; conditions: Human immunodeficiency virus 1, IIIB, MT4, 120 h
[6] = tested on: Human immunodeficiency virus 1; assay: Antiviral activity against HIV-1 harboring RT L100I mutant infected in human MT4 cells assessed as protection against virus-induced cytopathogenicity after 5 days by MTT assay; conditions: Human immunodeficiency virus 1, MT4, 120 h
[7] = tested on: Human immunodeficiency virus 1; assay: Antiviral activity against HIV-1 harboring RT K103N mutant infected in human MT4 cells assessed as protection against virus-induced cytopathogenicity after 5 days by MTT assay; conditions: Human immunodeficiency virus 1, MT4, 120 h
[8] = tested on: Human immunodeficiency virus 1; assay: Antiviral activity against NNRTI-resistant HIV-1 RES056 harboring RT K103N/Y181C mutant infected in human MT4 cells assessed as protection against virus-induced cytopathogenicity after 5 days by MTT assay; conditions: Human immunodeficiency virus 1, RES056, MT4, 120 h

| Structure (SMILES) | EC50 [1] [nM] | EC50 [2] [nM] | EC50 [3] [nM] | EC50 [4] [nM] | EC50 [5] [nM] | EC50 [6] [nM] | EC50 [7] [nM] | EC50 [8] [nM] |
| --- | --- | --- | --- | --- | --- | --- | --- | --- |
| Cc1cc(C#N)cc(C)c1Oc1nc(Nc2ccc(C#N)cc2)nc(N)c1Br [ETRAVIRINE] | 13.6 | 13.7 | 7.17 |  |  |  |  |  |
| Cc1cc(C#N)cc(C)c1Oc1nc(NC2CCN(Cc3ccc(S(C)(=O)=O)cc3)CC2)ncc1-c1cccs1 | 11.6 | 15.4 | 6.27 | 38.4 | 4.01 | 8.93 | 5.71 | 134 |
| Cc1cc(/C=C/C#N)cc(C)c1Oc1nc(NC2CCN(Cc3ccc(S(C)(=O)=O)cc3)CC2)ncc1-c1ccnc(F)c1 |  |  |  |  | 4.75 |  |  | 25.1 |
| Cc1cc(/C=C/C#N)cc(C)c1Oc1nc(NC2CCN(Cc3ccc(S(N)(=O)=O)cc3)CC2)ncc1-c1cccnc1 | 9.95 | 25.1 | 11.9 | 12.2 | 5.04 | 7.85 | 6.25 | 25.8 |
| Cc1cc(C#N)cc(C)c1Oc1nc(NC2CCN(Cc3ccc(S(C)(=O)=O)cc3)CC2)ncc1-c1ccsc1 | 11.7 | 27.2 | 10.6 | 67.5 | 4.92 | 20.3 | 4.75 | 253 |
| Cc1cc(/C=C/C#N)cc(C)c1Oc1nc(NC2CCN(Cc3ccc(S(C)(=O)=O)cc3)CC2)ncc1-c1ccncc1 |  |  |  |  | 5.74 |  |  | 26.3 |
| Cc1cc(C#N)cc(C)c1Oc1nc(NC2CCN(Cc3ccc(S(N)(=O)=O)cc3)CC2)ncc1-c1ccco1 | 24.8 | 36.5 | 24.5 | 128 | 4.4 | 20.9 | 5.33 | 218 |
| Cc1cc(/C=C/C#N)cc(C)c1Oc1nc(NC2CCN(Cc3ccc(C(N)=O)cc3)CC2)ncc1-c1ccnc(F)c1 |  |  |  |  | 8.26 |  |  | 53.4 |
| Cc1cc(C#N)cc(C)c1Oc1nc(NC2CCN(Cc3ccc(S(C)(=O)=O)cc3)CC2)ncc1-c1ccccc1 | 33.7 | 35.5 | 32.1 | 218 | 4.93 | 71.7 | 11.7 | 590 |
| Cc1cc(C#N)cc(C)c1Oc1nc(NC2CCN(Cc3ccc(C(N)=O)cc3)CC2)ncc1-c1ccco1 | 14.9 | 23.3 | 11.9 | 161 | 5.78 | 38.2 | 3.73 | 254 |
| Cc1cc(C#N)cc(C)c1Oc1nc(NC2CCN(Cc3ccc(S(N)(=O)=O)cc3)CC2)ncc1-c1ccccc1 | 26.2 | 33.2 | 24.5 | 219 | 5.14 | 53.2 | 7.74 | 427 |
| Cc1cc(C#N)cc(C)c1Oc1nc(NC2CCN(Cc3ccc(C(N)=O)cc3)CC2)ncc1-c1ccccc1 | 28.7 | 30.5 | 17.1 | 393 | 5.11 | 151 | 9.15 | 562 |
| Cc1cc(/C=C/C#N)cc(C)c1Oc1nc(NC2CCN(Cc3ccc(C(N)=O)cc3)CC2)ncc1-c1ccncc1 | 7.14 | 23 | 8.66 | 35.5 | 4.19 | 5.62 | 3.84 | 23.3 |
| Cc1cc(/C=C/C#N)cc(C)c1Oc1nc(NC2CCN(Cc3ccc(C(N)=O)cc3)CC2)ncc1-c1ccnc(Br)c1 |  |  |  |  | 7 |  |  | 32.2 |
| COc1cc(-c2cnc(NC3CCN(Cc4ccc(C(N)=O)cc4)CC3)nc2Oc2c(C)cc(/C=C/C#N)cc2C)ccn1 |  |  |  |  | 7.28 |  |  | 40.3 |
| Cc1cc(/C=C/C#N)cc(C)c1Oc1nc(NC2CCN(Cc3ccc(S(C)(=O)=O)cc3)CC2)ncc1-c1ccc(N)nc1 |  |  |  |  | 5.29 |  |  | 26.2 |
| Cc1cc(C#N)cc(C)c1Oc1nc(NC2CCN(Cc3ccc(S(N)(=O)=O)cc3)CC2)ncc1-c1ccncc1 | 6.93 | 21.4 | 8.12 | 45.9 | 2.59 | 10.6 | 2.33 | 111 |
| Cc1cc(C#N)cc(C)c1Oc1nc(NC2CCN(Cc3ccc(S(C)(=O)=O)cc3)CC2)ncc1-c1ccoc1 | 14.4 | 24.2 | 15.3 | 41.5 | 4.75 | 14.8 | 4.39 | 172 |
| Cc1cc(-c2cnc(NC3CCN(Cc4ccc(S(N)(=O)=O)cc4)CC3)nc2Oc2c(C)cc(/C=C/C#N)cc2C)ccn1 |  |  |  |  | 4.16 |  |  | 23 |
| Cc1cc(/C=C/C#N)cc(C)c1Oc1nc(NC2CCN(Cc3ccc(C(N)=O)cc3)CC2)ncc1-c1cccnc1 | 10.1 | 25.5 | 11.3 | 21.7 | 4.78 | 10.8 | 5.76 | 23.1 |

| Structure (SMILES) | EC50 [1] [nM] | EC50 [2] [nM] | EC50 [3] [nM] | EC50 [4] [nM] | EC50 [5] [nM] | EC50 [6] [nM] | EC50 [7] [nM] | EC50 [8] [nM] |
| --- | --- | --- | --- | --- | --- | --- | --- | --- |
| Cc1cc(C#N)cc(C)c1Oc1nc(NC2CCN(Cc3ccc(S(N)(=O)=O)cc3)CC2)ncc1-c1ccoc1 | 9.35 | 15.3 | 13 | 63.2 | 2.51 | 13.6 | 3 | 161 |
| Cc1cc(/C=C/C#N)cc(C)c1Oc1nc(NC2CCN(Cc3ccc(C(N)=O)cc3)CC2)ncc1-c1ccc(F)nc1 | 10.3 | 30.1 | 11.7 | 27.5 | 4.56 | 5.76 | 5.97 | 20.4 |
| Cc1cc(/C=C/C#N)cc(C)c1Oc1nc(NC2CCN(Cc3ccc(C(N)=O)cc3)CC2)ncc1-c1ccc(N)nc1 | 12 | 54.2 | 15.4 | 15.4 | 6.56 | 11.3 | 6.66 | 30.2 |
| Cc1cc(/C=C/C#N)cc(C)c1Oc1nc(NC2CCN(Cc3ccc(S(N)(=O)=O)cc3)CC2)ncc1-c1ccnc(Cl)c1 |  |  |  |  | 4.3 |  |  | 20.9 |
| Cc1cc(/C=C/C#N)cc(C)c1Oc1nc(NC2CCN(Cc3ccc(S(C)(=O)=O)cc3)CC2)ncc1-c1ccnc(Cl)c1 |  |  |  |  | 4.23 |  |  | 33.3 |
| COc1cc(-c2cnc(NC3CCN(Cc4ccc(S(C)(=O)=O)cc4)CC3)nc2Oc2c(C)cc(/C=C/C#N)cc2C)ccn1 |  |  |  |  | 3.95 |  |  | 30 |
| Cc1cc(-c2cnc(NC3CCN(Cc4ccc(C(N)=O)cc4)CC3)nc2Oc2c(C)cc(/C=C/C#N)cc2C)ccn1 |  |  |  |  | 3.53 |  |  | 18.1 |
| Cc1cc(-c2cnc(NC3CCN(Cc4ccc(S(C)(=O)=O)cc4)CC3)nc2Oc2c(C)cc(/C=C/C#N)cc2C)ccn1 |  |  |  |  | 4.55 |  |  | 31.5 |
| Cc1cc(/C=C/C#N)cc(C)c1Oc1nc(NC2CCN(Cc3ccc(S(C)(=O)=O)cc3)CC2)ncc1-c1ccnc(Br)c1 |  |  |  |  | 4.52 |  |  | 33.2 |
| Cc1cc(/C=C/C#N)cc(C)c1Oc1nc(NC2CCN(Cc3ccc(S(N)(=O)=O)cc3)CC2)ncc1-c1ccc(N)nc1 |  |  |  |  | 5.8 |  |  | 33.5 |
| COc1cc(-c2cnc(NC3CCN(Cc4ccc(S(N)(=O)=O)cc4)CC3)nc2Oc2c(C)cc(/C=C/C#N)cc2C)ccn1 |  |  |  |  | 5.75 |  |  | 34.3 |
| Cc1cc(C#N)cc(C)c1Oc1nc(NC2CCN(Cc3ccc(C(N)=O)cc3)CC2)ncc1-c1cccs1 | 10.2 | 17.9 | 8.85 | 75.4 | 3.34 | 14.7 | 5.15 | 115 |
| Cc1cc(/C=C/C#N)cc(C)c1Oc1nc(NC2CCN(Cc3ccc(S(C)(=O)=O)cc3)CC2)ncc1-c1cccnc1 | 10.3 | 22.7 | 12.2 | 13.2 | 4.57 | 10.7 | 5.42 | 22.4 |
| Cc1cc(/C=C/C#N)cc(C)c1Oc1nc(NC2CCN(Cc3ccc(S(N)(=O)=O)cc3)CC2)ncc1-c1ccncc1 | 24.2 | 27.1 | 11.1 | 23.7 | 4.6 | 5.87 | 4.91 | 22.9 |
| Cc1cc(/C=C/C#N)cc(C)c1Oc1nc(NC2CCN(Cc3ccc(S(N)(=O)=O)cc3)CC2)ncc1-c1ccnc(F)c1 |  |  |  |  | 6.37 |  |  | 38.8 |
| Cc1cc(/C=C/C#N)cc(C)c1Oc1nc(NC2CCN(Cc3ccc(S(C)(=O)=O)cc3)CC2)ncc1-c1ccc(F)nc1 |  |  |  |  | 6.04 |  |  | 25.5 |
| Cc1cc(/C=C/C#N)cc(C)c1Oc1nc(NC2CCN(Cc3ccc(C(N)=O)cc3)CC2)ncc1-c1ccnc(Cl)c1 |  |  |  |  | 4.14 |  |  | 81.7 |
| Cc1cc(C#N)cc(C)c1Oc1nc(NC2CCN(Cc3ccc(C(N)=O)cc3)CC2)ncc1-c1ccsc1 | 26.4 | 30 | 22 | 325 | 4.22 | 62.6 | 5.52 | 415 |
| Cc1cc(C#N)cc(C)c1Oc1nc(NC2CCN(Cc3ccc(S(C)(=O)=O)cc3)CC2)ncc1-c1ccncc1 | 10.8 | 18.5 | 9.19 | 79.4 | 5.93 | 17.4 | 4.4 | 244 |
| Cc1cc(/C=C/C#N)cc(C)c1Oc1nc(NC2CCN(Cc3ccc(S(N)(=O)=O)cc3)CC2)ncc1-c1ccnc(Br)c1 |  |  |  |  | 4.42 |  |  | 26.9 |
